From the NIST ThermoML archive (doi:10.1016/j.jct.2012.05.014)
Numbers after ± are expanded uncertainties.

Assay: xn = mol fraction of the nth substance listed
Conditions: Fluid (supercritical or subcritical phases), Gravimetric method

CCCCCCCCNC(=O)C(=O)NCCCCCCCC [N1,N2-dioctyloxalamide] + O=C=O
Conditions	mass density [kg/m3]
313 K, 11700 kPa, x1 = 0.0001449	710.44 ± 32
313 K, 12000 kPa, x1 = 0.0001679	719.38 ± 14
313 K, 12500 kPa, x1 = 0.0002108	732.67 ± 40
313 K, 13000 kPa, x1 = 0.00025	744.41 ± 12
313 K, 13400 kPa, x1 = 0.000284	752.9 ± 6
323 K, 12300 kPa, x1 = 0.0001146	604.62 ± 11
323 K, 12900 kPa, x1 = 0.0001562	633.72 ± 3.9
323 K, 13400 kPa, x1 = 0.000212	653.57 ± 3.8
323 K, 13900 kPa, x1 = 0.0002628	670.57 ± 5
323 K, 14400 kPa, x1 = 0.0003178	685.43 ± 4.2
333 K, 12900 kPa, x1 = 9.49e-05	500.8 ± 8.2
333 K, 13500 kPa, x1 = 0.0001511	537.09 ± 3.4
333 K, 13900 kPa, x1 = 0.0002093	558.17 ± 9.5
333 K, 14400 kPa, x1 = 0.0002622	581.45 ± 3.8
333 K, 14800 kPa, x1 = 0.0003278	597.96 ± 4.6
343 K, 13400 kPa, x1 = 9.77e-05	425.4 ± 5.7
343 K, 13700 kPa, x1 = 0.0001344	441.9 ± 7.8
343 K, 14000 kPa, x1 = 0.0001772	457.97 ± 6.3
343 K, 14300 kPa, x1 = 0.0002091	473.49 ± 12
343 K, 14600 kPa, x1 = 0.0002392	488.4 ± 11
353 K, 13600 kPa, x1 = 0.0001134	366.46 ± 6.3
353 K, 14000 kPa, x1 = 0.0001546	384.26 ± 8.7
353 K, 14400 kPa, x1 = 0.0002019	402 ± 7.2
353 K, 14700 kPa, x1 = 0.0002432	415.16 ± 6.5
353 K, 15000 kPa, x1 = 0.0002821	428.15 ± 6.7

CCCCCCNC(=O)C(=O)NCCCCCC [N1,N2-dihexyloxalamide] + O=C=O
Conditions	mass density [kg/m3]
313 K, 9100 kPa, x1 = 0.000112	517.19 ± 0.12
313 K, 9500 kPa, x1 = 0.0002518	584.52 ± 0.14
313 K, 9800 kPa, x1 = 0.000392	615.65 ± 0.15
313 K, 10100 kPa, x1 = 0.0005214	638.82 ± 0.15
313 K, 10400 kPa, x1 = 0.0006463	657.22 ± 0.16
323 K, 10700 kPa, x1 = 0.0001583	472.58 ± 0.11
323 K, 11100 kPa, x1 = 0.0003041	515.81 ± 0.12
323 K, 11400 kPa, x1 = 0.0004264	543.31 ± 0.13
323 K, 11700 kPa, x1 = 0.0005407	566.85 ± 0.14
323 K, 12000 kPa, x1 = 0.0006537	587.07 ± 0.14
333 K, 11900 kPa, x1 = 0.0002196	428.55 ± 0.1
333 K, 12300 kPa, x1 = 0.0003629	458.89 ± 0.11
333 K, 12600 kPa, x1 = 0.0004822	480.5 ± 0.12
333 K, 12900 kPa, x1 = 0.0006024	500.8 ± 0.12
333 K, 13200 kPa, x1 = 0.0007245	519.67 ± 0.12
343 K, 12500 kPa, x1 = 0.000277	374.67 ± 0.09
343 K, 12900 kPa, x1 = 0.0003827	397.3 ± 0.1
343 K, 13200 kPa, x1 = 0.0004661	414.22 ± 0.1
343 K, 13500 kPa, x1 = 0.00056	430.94 ± 0.1
343 K, 13700 kPa, x1 = 0.0006445	441.9 ± 0.11
353 K, 12800 kPa, x1 = 0.0003133	331.22 ± 0.08
353 K, 13300 kPa, x1 = 0.0004305	353.15 ± 0.08
353 K, 13700 kPa, x1 = 0.0005336	370.9 ± 0.09
353 K, 14000 kPa, x1 = 0.0006155	384.26 ± 0.09
353 K, 14300 kPa, x1 = 0.0007224	397.58 ± 0.1

CCCCNC(=O)C(=O)NCCCC [N,N'-dibutyloxalamide] + O=C=O
Conditions	mass density [kg/m3]
313 K, 9100 kPa, x1 = 0.0002628	517.19 ± 0.12
313 K, 9300 kPa, x1 = 0.0005167	556.08 ± 0.13
313 K, 9500 kPa, x1 = 0.0008035	584.52 ± 0.14
313 K, 9700 kPa, x1 = 0.001136	606.4 ± 0.15
313 K, 9800 kPa, x1 = 0.001295	615.65 ± 0.15
323 K, 10300 kPa, x1 = 0.0001531	423.74 ± 0.1
323 K, 10600 kPa, x1 = 0.0003084	460.74 ± 0.11
323 K, 10900 kPa, x1 = 0.000518	495.1 ± 0.12
323 K, 11100 kPa, x1 = 0.0007008	515.81 ± 0.12
323 K, 11300 kPa, x1 = 0.000942	534.61 ± 0.13
333 K, 11600 kPa, x1 = 0.0003355	405.21 ± 0.1
333 K, 12000 kPa, x1 = 0.0005099	436.26 ± 0.1
333 K, 12300 kPa, x1 = 0.0007204	458.89 ± 0.11
333 K, 12500 kPa, x1 = 0.0009202	473.43 ± 0.11
333 K, 12700 kPa, x1 = 0.001115	487.42 ± 0.12
343 K, 12100 kPa, x1 = 0.0003508	352.31 ± 0.08
343 K, 12500 kPa, x1 = 0.000503	374.67 ± 0.09
343 K, 12800 kPa, x1 = 0.000639	391.64 ± 0.09
343 K, 13000 kPa, x1 = 0.0007821	402.95 ± 0.1
343 K, 13200 kPa, x1 = 0.0009026	414.22 ± 0.1
353 K, 12600 kPa, x1 = 0.0003735	322.59 ± 0.08
353 K, 13100 kPa, x1 = 0.0005294	344.33 ± 0.08
353 K, 13500 kPa, x1 = 0.0006999	362.01 ± 0.09
353 K, 13800 kPa, x1 = 0.0008396	375.36 ± 0.09
353 K, 14000 kPa, x1 = 0.0009729	384.26 ± 0.09
